Laboratory results from ChEMBL document CHEMBL1153670 (Bioorg Med Chem Lett, 1995).

What was measured:
[1] = test system: HCT-116; assay: Potency relative to paclitaxel in a tubulin polymerization assay in HCT116 cell line; type: functional, Homo sapiens
[2] = test system: HCT-116; assay: In vitro cytotoxicity was determined by inhibition against HCT116 cell line proliferation after 72 hours of incubation; type: cell-based; conditions: Homo sapiens, HCT-116, 72 h
[3] = test system: M109; assay: In vivo cytotoxicity of intraperitoneally administered compound at dose 1 mg/kg/injection was determined against ip implanted murine M-109 lung carcinoma; type: organism-based; design: route intraperitoneal; conditions: mouse
[4] = test system: HCT-116; assay: cells; conditions: Homo sapiens
[5] = test system: M109; assay: In vivo cytotoxicity of intraperitoneally administered compound at dose 16 mg/kg/inj was determined against ip implanted murine M-109 lung carcinoma; type: organism-based; design: route intraperitoneal; conditions: mouse
[6] = test system: M109; assay: In vivo cytotoxicity of intraperitoneally administered compound at dose 50 mgkg/inj was determined against ip implanted murine M-109 lung carcinoma; type: organism-based; design: dose mgkg, route intraperitoneal; conditions: mouse
[7] = test system: M109; assay: In vivo cytotoxicity of intraperitoneally administered compound at dose 32 mg/kg/inj was determined against ip implanted murine M-109 lung carcinoma; type: organism-based; design: route intraperitoneal; conditions: mouse
[8] = test system: M109; assay: In vivo cytotoxicity of intraperitoneally administered compound at dose 25 mgkg/inj was determined against ip implanted murine M-109 lung carcinoma; type: organism-based; design: dose mgkg, route intraperitoneal; conditions: mouse
[9] = test system: M109; assay: In vivo cytotoxicity of intraperitoneally administered compound at dose 4 mg/kg/inj was determined against ip implanted murine M-109 lung carcinoma; type: organism-based; design: route intraperitoneal; conditions: mouse
[10] = test system: M109; assay: In vivo cytotoxicity of intraperitoneally administered compound at dose 3 mg/kg/inj was determined against ip implanted murine M-109 lung carcinoma; type: organism-based; design: route intraperitoneal; conditions: mouse
[11] = test system: M109; assay: In vivo cytotoxicity of intraperitoneally administered compound at dose 6 mg/kg/inj was determined against ip implanted murine M-109 lung carcinoma; type: organism-based; design: route intraperitoneal; conditions: mouse
[12] = test system: M109; assay: In vivo cytotoxicity of intraperitoneally administered compound at dose 1.6 mg/kg/inj was determined against ip implanted murine M-109 lung carcinoma; type: organism-based; design: route intraperitoneal; conditions: mouse
[13] = test system: M109; assay: In vivo cytotoxicity of intraperitoneally administered compound was determined against ip implanted murine M-109 lung carcinoma; NA means not active; type: organism-based; conditions: mouse

Compound | Tubulin polymerization ratio [1] | IC50 [2] [nM] | IC50 [4] [nM] | other results
CCCC(=O)O[C@@]12CO[C@@H]1C[C@H](O)[C@@]1(C)C(=O)[C@H](OC(C)=O)C3=C(C)[C@@H](OC(=O)[C@H](O)C(NC(=O)OC(C)(C)C)c4ccco4)C[C@@](O)([C@@H](OC(=O)c4ccccc4)C12)C3(C)C (some centres not stated) | 0.5 | 2.8 | 0.7 | T/C [3]: 96 mg kg-1 injection-1
CC(=O)O[C@H]1C(=O)[C@@]2(C)C([C@H](OC(=O)c3ccccc3)[C@]3(O)C[C@H](OC(=O)[C@H](O)C(NC(=O)c4ccccc4)c4ccco4)C(C)=C1C3(C)C)[C@]1(OC(=O)C3CCC3)CO[C@@H]1C[C@@H]2O (some centres not stated) | 0.29 | 1.6 | 0.4 | T/C [5]: 188 mg kg-1 injection-1
COC(=O)O[C@@]12CO[C@@H]1C[C@H](O)[C@@]1(C)C(=O)[C@H](OC(C)=O)C3=C(C)[C@@H](OC(=O)[C@H](O)C(NC(=O)c4ccccc4)c4ccccc4)C[C@@](O)([C@@H](OC(=O)c4ccccc4)C12)C3(C)C (some centres not stated) | 0.41 | 2 | 0.5 | T/C [6]: 161%
COC(=O)O[C@@]12CO[C@@H]1C[C@H](O)[C@@]1(C)C(=O)[C@H](OC(C)=O)C3=C(C)[C@@H](OC(=O)[C@H](O)C(NC(=O)OC(C)(C)C)c4ccco4)C[C@@](O)([C@@H](OC(=O)c4ccccc4)C12)C3(C)C (some centres not stated) | 0.66 | 1.6 | 0.4 | T/C [7]: 183%
CCCC(=O)O[C@@]12CO[C@@H]1C[C@H](O)[C@@]1(C)C(=O)[C@H](OC(C)=O)C3=C(C)[C@@H](OC(=O)[C@H](O)C(NC(=O)c4ccccc4)c4ccccc4)C[C@@](O)([C@@H](OC(=O)c4ccccc4)C12)C3(C)C (some centres not stated) | 0.61 | 1.1 | 0.25 | T/C [8]: 164 mg kg-1 injection-1
CCOC(=O)O[C@@]12CO[C@@H]1C[C@H](O)[C@@]1(C)C(=O)[C@H](OC(C)=O)C3=C(C)[C@@H](OC(=O)[C@H](O)C(NC(=O)OC(C)(C)C)c4ccco4)C[C@@](O)([C@@H](OC(=O)c4ccccc4)C12)C3(C)C (some centres not stated) | 0.3 | 2.95 | 0.59 | T/C [9]: 144%
CC(=O)O[C@H]1C(=O)[C@@]2(C)C([C@H](OC(=O)c3ccccc3)[C@]3(O)C[C@H](OC(=O)[C@H](O)C(NC(=O)c4ccccc4)c4ccco4)C(C)=C1C3(C)C)[C@]1(OC(=O)C3CC3)CO[C@@H]1C[C@@H]2O (some centres not stated) | 0.33 | 0.9 | 0.22 | T/C [10]: 132 mg kg-1 injection-1
CC(=O)O[C@H]1C(=O)[C@@]2(C)C([C@H](OC(=O)c3ccccc3)[C@]3(O)C[C@H](OC(=O)[C@H](O)C(NC(=O)OC(C)(C)C)c4ccco4)C(C)=C1C3(C)C)[C@]1(OC(=O)C3CC3)CO[C@@H]1C[C@@H]2O (some centres not stated) | 0.33 | 1.3 | 0.33 | T/C [9]: 100%
CC(=O)O[C@H]1C(=O)[C@@]2(C)C([C@H](OC(=O)c3ccccc3)[C@]3(O)C[C@H](OC(=O)[C@H](O)C(NC(=O)c4ccccc4)c4ccccc4)C(C)=C1C3(C)C)[C@]1(OC(=O)C3CC3)CO[C@@H]1C[C@@H]2O (some centres not stated) | 0.24 | 1 | 0.25 | T/C [11]: 188 mg kg-1 injection-1
CCOC(=O)O[C@@]12CO[C@@H]1C[C@H](O)[C@@]1(C)C(=O)[C@H](OC(C)=O)C3=C(C)[C@@H](OC(=O)[C@H](O)C(NC(=O)c4ccccc4)c4ccccc4)C[C@@](O)([C@@H](OC(=O)c4ccccc4)C12)C3(C)C (some centres not stated) | 0.64 | 1 | 0.25 | T/C [11]: 142 mg kg-1 injection-1
CC(=O)O[C@H]1C(=O)[C@@]2(C)C([C@H](OC(=O)c3ccccc3)[C@]3(O)C[C@H](OC(=O)[C@H](O)C(NC(=O)OC(C)(C)C)c4ccccc4)C(C)=C1C3(C)C)[C@]1(OC(=O)C3CC3)CO[C@@H]1C[C@@H]2O (some centres not stated) | 0.22 | 0.8 | 0.2 | T/C [12]: 115%
CC(=O)O[C@H]1C(=O)[C@@]2(C)C([C@H](OC(=O)c3ccccc3)[C@]3(O)C[C@H](OC(=O)[C@H](O)C(NC(=O)c4ccccc4)c4ccccc4)C(C)=C1C3(C)C)[C@]1(OC(=O)C3CCC3)CO[C@@H]1C[C@@H]2O (some centres not stated) | 0.44 | 1.5 | 0.38 | T/C [13]: Not Active
CCOC(=O)O[C@@]12CO[C@@H]1C[C@H](O)[C@@]1(C)C(=O)[C@H](OC(C)=O)C3=C(C)[C@@H](OC(=O)[C@H](O)C(NC(=O)c4ccccc4)c4ccco4)C[C@@](O)([C@@H](OC(=O)c4ccccc4)C12)C3(C)C (some centres not stated) | 0.4 | 1.5 | 0.43 | T/C [13]: Not Active
